From US20240197701A1, “ANDROGEN RECEPTOR INHIBITION TO TREAT SEPSIS AND SHOCK” (priority 2021, published 2024)
Like-named read-outs stand apart in the source and are kept apart here.

Tests used:
COVID-19 [1] = details: RECOVERY platform trial; cited from earlier work
SARS-COV-2 [2] = details: for Resolution of Symptoms Odds ratio / Viral Clearance Odds ratio: multivariate logistic regression, within 7 days, azithromycin with the listed drug(s), hydroxychloroquine = reference, N = 475; for Resolution of Symptoms Odds ratio: except anosmia, ageusia; for Increase in viral clearance rate: first 7 days of therapy; for Increase in viral clearance rate / Increase in symptom resolution rate: versus control; for Increase in symptom resolution rate: first week of therapy; for Viral clearance at seven days in men: spironolactone compared to dutasteride; for Odds ratio for viral clearance within seven days when used with nitazoxanide: multivariate analysis; for Adverse events: short duration administration
COVID-19 [3] = test system: COVID-19
COVID-19 [4] = experiment: Proxalutamide treatment for hospitalized COVID-19 patients, double-blinded placebo-controlled trial, preliminary report; format: in vivo; details: n = 294
SARS-COV-2 [5] = details: cited from earlier work
COVID-19 [6] = details: single case, after starting proxalutamide; cited from earlier work
COVID-19 [7] = details: cited from earlier work
[8] = in vivo; cited from earlier work
SARS-COV-2 [9] = details: dutasteride 0.5 mg per day, male patients; cited from earlier work
COVID-19 [10] = details: 5 mg daily, without achieving statistical significance; cited from earlier work
COVID-19 [11] = details: intensive care observational series; cited from earlier work

Compound: COc1cc2c(c(OC)c1OC)-c1ccc(OC)c(=O)cc1[C@@H](NC(C)=O)CC2 [Colchicine]
- 28-day mortality rate ratio (COVID-19 [1]): 1.01

Compound: CCN(CCO)CCCC(C)Nc1ccnc2cc(Cl)ccc12 (stereo not shown) [Hydroxychloroquine]
- Resolution of Symptoms Odds ratio (SARS-COV-2 [2]): 1
- Viral Clearance Odds ratio (SARS-COV-2 [2]): 1

Compound: CC1(C)C(=O)N(c2ccc(C#N)c(C(F)(F)F)c2F)C(=S)N1c1ccc(CCCc2ncco2)nc1 [proxalutamide]
- 28-day median ordinal scale score (COVID-19 [3]; COVID-19 8-point ordinal scale): 1
- 14-day median ordinal scale score (COVID-19 [3]; COVID-19 8-point ordinal scale, intention-to-treat, proxalutamide 300 mg/day): 1
- Median post-randomization time to recovery (COVID-19 [3]; alive hospital discharge): 5 days
- 14-day recovery rate (COVID-19 [3]; alive hospital discharge (scores 1, 2), intention-to-treat): 81.4%
- Less likely to die than patients in the control group (COVID-19 [3]; during the study period): 84%
- Median hospitalization time (days) (COVID-19 [3]; human, in vivo): eight
- Treatment emergent adverse events (COVID-19 [3]; human, in vivo): limited to diarrhea
- Difference in the proportion of alive hospital discharge (COVID-19 [3]; increased until day 11): 75%
- 28-day all-cause mortality rate (COVID-19 [3]; intention-to-treat): 11.0%
- Hazard ratio for all-cause mortality (death) (COVID-19 [3]; over 28 days, versus placebo): 0.16
- Risk ratio for death (COVID-19 [3]; over 28 days, versus placebo): 0.22
- Number needed to treat (NNT) to prevent one death (COVID-19 [3]; over twenty-eight days): 3
- Adverse events grades 4 or 3 (COVID-19 [3]; proxalutamide arm): 2.2%
- Diarrhea (COVID-19 [3]; proxalutamide arm): 16.1%
- Irritability (COVID-19 [3]; proxalutamide arm): 1.3%
- 14-day recovery ratio (COVID-19 [3]; versus placebo): 2.28
- 28-day recovery ratio (COVID-19 [3]; versus placebo): 1.81
- Higher recovery rate than placebo at 28 days (COVID-19 [3]; versus placebo): 81%
- Higher recovery rate than placebo at day 14 (COVID-19 [3]; versus placebo): 128%
- Mortality (%) Day 14 (COVID-19 [4]; hospitalized COVID-19 patients, proxalutamide 300 mg q.d.): 3.7%
- Discharged (%) Day 14 (COVID-19 [4]): 89.1%
- Full clinical remission (%) Day 14 (COVID-19 [4]): 75.9%
- HFO, NIV, or MV use, or death (%) Day 14 (COVID-19 [4]): 4.8%
- Hospital Length Stay (Days) Mean ± SD (COVID-19 [4]): 6.3 ± 5.3 days
- Hospital Length Stay (Days) Median (IQR) (COVID-19 [4]): 5.0 days
- Improvement in clinical status - Ordinary scale (days) One point Mean ± SD (COVID-19 [4]): 3.0 ± 5.5 days
- Improvement in clinical status - Ordinary scale (days) One point Median (IQR) (COVID-19 [4]): 1.0 days
- Improvement in clinical status - Ordinary scale (days) Two points Mean ± SD (COVID-19 [4]): 5.5 ± 7.1 days
- Improvement in clinical status - Ordinary scale (days) Two points Median (IQR) (COVID-19 [4]): 3.0 days
- New mechanical ventilation (MV) or Death (%) Day 14 (COVID-19 [4]): 4.4%
- No HFO or NIV use (%) Day 14 (COVID-19 [4]): 95.2%
- No oxygen use (%) Day 14 (COVID-19 [4]): 92.5%
- Viral clearance at seven days in men (SARS-COV-2 [5]; men): 81%
- Viral clearance at seven days in women (SARS-COV-2 [5]; women): 85%
- Time to striking symptom resolution and laboratory improvement (COVID-19 [6]): twenty-four
- Reduction of the risk of hospitalization (COVID-19 [7]; compared to usual care): 91%
- 30-day hospitalization rate (COVID-19 [7]; proxalutamide 200 mg for up to seven days, men): 2.2%

Compound: CC(=O)Oc1ccccc1C(=O)Nc1ncc([N+](=O)[O-])s1 [Nitazoxanide]
- Resolution of Symptoms Odds ratio (SARS-COV-2 [2]): 2.08
- Viral Clearance Odds ratio (SARS-COV-2 [2]): 1.88
- Association with faster viral clearance (SARS-COV-2 [2]; two times a day for 6 days combined with azithromycin): not associated faster clearance

Compound: C[C@]12C=CC(=O)N[C@@H]1CC[C@@H]1[C@@H]2CC[C@]2(C)[C@@H](C(=O)Nc3cc(C(F)(F)F)ccc3C(F)(F)F)CC[C@@H]12 [dutasteride]
- Half-life [8]: five
- Increase in viral clearance rate (SARS-COV-2 [2]): 320%
- Increase in symptom resolution rate (SARS-COV-2 [2]): 70%
- Viral clearance at seven days in men (SARS-COV-2 [2]): 21%
- Odds ratio for viral clearance within seven days when used with nitazoxanide (SARS-COV-2 [2]; with nitazoxanide): 7.1
- Viral clearance at seven days among nitazoxanide male users (SARS-COV-2 [2]; nitazoxanide male users): 21%
- Adverse events (SARS-COV-2 [2]): no adverse events noted
- Viral clearance at seven days (SARS-COV-2 [9]): 64.3%

Compound: CC(=O)S[C@@H]1CC2=CC(=O)CC[C@]2(C)[C@H]2CC[C@@]3(C)[C@@H](CC[C@@]34CCC(=O)O4)[C@H]12 [spironolactone]
- Increase in viral clearance rate (SARS-COV-2 [2]): 320%
- Increase in symptom resolution rate (SARS-COV-2 [2]): 70%
- Viral clearance at seven days in men (SARS-COV-2 [2]): 40%
- Odds ratio for viral clearance within seven days when used with nitazoxanide (SARS-COV-2 [2]; with nitazoxanide): 10.1
- Adverse events (SARS-COV-2 [2]): no adverse events noted
- Viral clearance at seven days (SARS-COV-2 [2]; spironolactone initiated at the time of COVID-19 diagnosis): 34%
- Viral clearance at seven days, added to ivermectin (SARS-COV-2 [2]; with ivermectin): 26%
- Viral clearance at seven days, added to nitazoxanide (SARS-COV-2 [2]; with nitazoxanide): 42%

Compound: Ivermectin
- Resolution of Symptoms Odds ratio (SARS-COV-2 [2]): 1.45
- Viral Clearance Odds ratio (SARS-COV-2 [2]): 0.32

Compound: CC(C)(C)NC(=O)[C@H]1CC[C@H]2[C@@H]3CC[C@H]4NC(=O)C=C[C@]4(C)[C@H]3CC[C@]12C [finasteride]
- Inpatient mortality (COVID-19 [10]): reduced inpatient mortality
- Half-life [8]: six

Compound: C[C@]12CCC(=O)C=C1C=C[C@@H]1[C@@H]2CC[C@@]2(C)[C@H]1CC[C@@]21CCC(=O)O1 [Canrenone]
- Fatalities (COVID-19 [11]): reduced fatalities
